According to ChEMBL document CHEMBL4387741, “Optimization of novel reversible Bruton's tyrosine kinase inhibitors identified using Tethering-fragment-based screens” (Bioorg Med Chem, 2019):

Key:
[1] = target: Tyrosine-protein kinase BTK (Homo sapiens, UniProt Q06187); assay: Inhibition of wild-type human full length BTK (M1 to S659 residues) expressed in mammalian expression system at 1 uM by Kinomescan method relative to control
[2] = target: Serine/threonine-protein kinase Nek4 (Homo sapiens) (UniProt P51957); assay: Inhibition of wild-type human full length NEK4 (M1 to F841 residues) expressed in mammalian expression system at 1 uM by Kinomescan method relative to control
[3] = target: Serine/threonine-protein kinase 10 (Homo sapiens) (UniProt O94804); assay: Inhibition of wild-type human partial length LOK (E16 to V314 residues) expressed in bacterial expression system at 1 uM by Kinomescan method relative to control
[4] = target: SRSF protein kinase 1 (Homo sapiens) (UniProt Q96SB4); assay: Inhibition of wild-type human full length SRPK1 (M1 to S655 residues) expressed in bacterial expression system at 1 uM by Kinomescan method relative to control
[5] = target: Serine/threonine-protein kinase 3 (Homo sapiens) (UniProt Q13188); assay: Inhibition of wild-type human partial length MST2 (D17 to E318 residues) expressed in bacterial expression system at 1 uM by Kinomescan method relative to control
[6] = target: cAMP-dependent protein kinase catalytic subunit PRKX (Homo sapiens) (UniProt P51817); assay: Inhibition of wild-type human partial length PRKX (M1 to F358 residues) expressed in bacterial expression system at 1 uM by Kinomescan method relative to control
[7] = tested on: Epidermal growth factor receptor (Homo sapiens), P00533 [UNDEFINED MUTATION]; assay: Inhibition of human partial length EGFR E746-A750del mutant expressed in bacterial expression system at 1 uM by Kinomescan method relative to control
[8] = target: Serine/threonine-protein kinase pim-1 (Homo sapiens) (UniProt P11309); assay: Inhibition of wild-type human partial length PIM1 (A15 to K313 residues) expressed in bacterial expression system at 1 uM by Kinomescan method relative to control
[9] = target: 3-phosphoinositide-dependent protein kinase 1 (Homo sapiens) (UniProt O15530); assay: Inhibition of wild-type human full length PDPK1 (M1 to Q556 residues) expressed in bacterial expression system at 1 uM by Kinomescan method relative to control
[10] = tested on: Receptor-type tyrosine-protein kinase FLT3 (Homo sapiens), P36888 [R834Q]; assay: Inhibition of human partial length FLT3 R834Q mutant (V592 to Y969 residues) expressed in mammalian expression system at 1 uM by Kinomescan method relative to control
[11] = target: Tyrosine-protein kinase receptor Tie-1 (Homo sapiens) (UniProt P35590); assay: Inhibition of wild-type human partial length TIE1 (T819 to A1138 residues) expressed in bacterial expression system at 1 uM by Kinomescan method relative to control
[12] = target: Aurora kinase C (Homo sapiens) (UniProt Q9UQB9); assay: Inhibition of wild-type human full length AURKC (M1 to S275 residues) expressed in bacterial expression system at 1 uM by Kinomescan method relative to control
[13] = target: Serine/threonine-protein kinase Nek7 (Homo sapiens) (UniProt Q8TDX7); assay: Inhibition of wild-type human full length NEK7 (M1 to S302 residues) expressed in bacterial expression system at 10 uM by Kinomescan method relative to control
[14] = target: cGMP-dependent protein kinase 1 (Homo sapiens) (UniProt Q13976); assay: Inhibition of wild-type human partial length PRKG1 (L339 to F686 residues) expressed in bacterial expression system at 10 uM by Kinomescan method relative to control
[15] = target: Serine/threonine-protein kinase Nek1 (Homo sapiens) (UniProt Q96PY6); assay: Inhibition of wild-type human partial length NEK1 (M1 to K278 residues) expressed in bacterial expression system at 10 uM by Kinomescan method relative to control
[16] = target: Mitogen-activated protein kinase 3 (Homo sapiens) (UniProt P27361); assay: Inhibition of wild-type human full length ERK1 (M1 to P379 residues) expressed in bacterial expression system at 10 uM by Kinomescan method relative to control
[17] = target: Tyrosine-protein kinase HCK (Homo sapiens) (UniProt P08631); assay: Inhibition of wild-type human full length HCK (M22 to P526 residues) expressed in bacterial expression system at 10 uM by Kinomescan method relative to control
[18] = tested on: Mast/stem cell growth factor receptor Kit (Homo sapiens), P10721 [UNDEFINED MUTATION]; assay: Inhibition of human partial length KIT V559D/V654 double mutant (Y545 to D952 residues) expressed in bacterial expression system at 10 uM by Kinomescan method relative to control
[19] = target: Serine/threonine-protein kinase PAK 1 (Homo sapiens) (UniProt Q13153); assay: Inhibition of wild-type human partial length PAK1 (S149 to H545 residues) expressed in bacterial expression system at 10 uM by Kinomescan method relative to control
[20] = target: Mitogen-activated protein kinase kinase kinase kinase 1 (Homo sapiens) (UniProt Q92918); assay: Inhibition of wild-type human full length HPK1 (M1 to R799 residues) expressed in bacterial expression system at 10 uM by Kinomescan method relative to control
[21] = target: Serine/threonine-protein kinase tousled-like 2 (Homo sapiens) (UniProt Q86UE8); assay: Inhibition of wild-type human partial length TLK2 (E424 to N749 residues) expressed in bacterial expression system at 10 uM by Kinomescan method relative to control
[22] = target: Phosphatidylinositol 4,5-bisphosphate 3-kinase catalytic subunit gamma isoform (Homo sapiens) (UniProt P48736); assay: Inhibition of wild-type human partial length PIK3CG (S144 to A1102 residues) expressed in mammalian expression system at 10 uM by Kinomescan method relative to control
[23] = target: Mitogen-activated protein kinase kinase kinase 11 (Homo sapiens) (UniProt Q16584); assay: Inhibition of wild-type human partial length MLK3 (I77 to W399 residues) expressed in bacterial expression system at 10 uM by Kinomescan method relative to control
[24] = target: Serine/threonine-protein kinase TAO3 (Homo sapiens) (UniProt Q9H2K8); assay: Inhibition of wild-type human partial length TAOK3 (M1 to T316 residues) expressed in mammalian expression system at 10 uM by Kinomescan method relative to control
[25] = target: Phosphatidylinositol 4-kinase beta (Homo sapiens) (UniProt Q9UBF8); assay: Inhibition of wild-type human full length PIK4CB (M1 to M828 residues) expressed in mammalian expression system at 10 uM by Kinomescan method relative to control
[26] = target: Serine/threonine-protein kinase PknB (Mycobacterium tuberculosis) (UniProt P9WI81); assay: Inhibition of wild-type Mycobacterium tuberculosis partial length PKNB (M1 to G279 residues) expressed in mammalian expression system at 10 uM by Kinomescan method relative to control
[27] = target: Serine/threonine-protein kinase pim-1 (Homo sapiens) (UniProt P11309); assay: Inhibition of wild-type human partial length PIM1 (A15 to K313 residues) expressed in bacterial expression system at 10 uM by Kinomescan method relative to control

O=C(Nc1cccc([C@@H]2CN(c3ncnc4[nH]ccc34)CCN2CCO)c1)Nc1c(F)cccc1N1CCCC1
inhibition [1]: 0.3%
inhibition [2]: 86%
inhibition [3]: 11%
inhibition [4]: 37%
inhibition [5]: 64%
inhibition [6]: 95%
inhibition [7]: 97%
inhibition [8]: 86%
inhibition [9]: 34%
inhibition [10]: 47%
inhibition [11]: 99%
inhibition [12]: 33%

O=C(Nc1cccc([C@H]2CCCN(c3ncnc4[nH]ccc34)C2)c1)Nc1ccccc1N1CCCC1
inhibition [13]: 72%
inhibition [14]: 44%
inhibition [15]: 100%
inhibition [16]: 100%
inhibition [17]: 98%
inhibition [18]: 26%
inhibition [19]: 90%
inhibition [20]: 100%
inhibition [21]: 89%
inhibition [22]: 75%
inhibition [23]: 85%
inhibition [24]: 79%
inhibition [25]: 89%
inhibition [26]: 29%
inhibition [27]: 84%
